Results from US10981932B2, “Macrocyclic indole derivatives” (Bayer Aktiengesellschaft, priority 2016, dated 2021).
Counter-ions that a name gives are not always drawn. Like-named read-outs stand apart in the source and are kept apart here.

Legend:
[1] = system: SUDHL10; assay: Anti-proliferative effect (CellTiter-Glo, 72 h), SUDHL10; format: cell-based; conditions: SUDHL10 cells, antiproliferation, 72 h incubation, median, read-out: Antiproli SUDHL10 [M] (median)
Method in brief: (§1)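 CellTiter-Glo luminescence readout of viability, taken on a time-zero plate at day 0 and on treated plates after 72 h incubation at 37 °C in a humidified incubator. Reagent incubation 10 min before reading.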

[2] = system: SUDHL5; assay: Anti-proliferative effect (CellTiter-Glo, 72 h), SUDHL5; format: cell-based; conditions: SUDHL5 cells, antiproliferation, 72 h incubation, median, read-out: Antiproli SUDHL5 [M] (median)
Method in brief: as §1

[3] = system: OPM2; assay: Anti-proliferative effect (CellTiter-Glo, 72 h), OPM2; format: cell-based; conditions: OPM2 cells, median, read-out: IC50 antiproliferation assay OPM2 [M] (median)
Method in brief: as §1

[4] = system: SUDHL10; assay: Induction of cytotoxicity (CellTiter-Glo, 5 h), SUDHL10
[5] = system: A2780; assay: Anti-proliferative effect (CellTiter-Glo, 72 h), A2780; format: cell-based; conditions: A2780 cells, median, read-out: IC50 antiproliferation assay A2780 [M] (median)
Method in brief: as §1

[6] = molecular target: MCL-1 (Homo sapiens, UniProt Q07820); assay: Protein-protein interaction assay MCL-1/Noxa BH3 peptide (MCL-1 assay), TR-FRET; format: binding; conditions: MBP-MCL-1 / Noxa BH3-derived peptide, median
Method in brief: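 MBP-MCL-1 (1 nM final) was preincubated 10 min at 22 °C with compounds (11 concentrations, 0.1 nM–20 μM, duplicates) in Tris pH 7 buffer with NaCl, KF, Tween-20, DTT and BGG. After 1 h at 22 °C in the dark plus overnight at 4 °C, anti-MBP Eu-cryptate/streptavidin-XL665 TR-FRET was read; IC50 came from a 4-parameter fit.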

[7] = system: SUDHL10; assay: Induction of caspase-3/7 activity (Caspase-Glo 3/7), SUDHL10; format: cell-based; conditions: caspase-3/7 induction, SUDHL10 cells, 3 h treatment, median
Method in brief: (§2)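 Caspase-Glo 3/7 luminescence measured after 3 h compound exposure at 37 °C in SUDHL10 and SUDHL5 cells. EC50 values come from background-corrected signals, with curve bottom set to 1 and plateau set to maximal induction by the reference compound.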

[8] = system: SUDHL5; assay: Induction of cytotoxicity (CellTiter-Glo, 5 h), SUDHL5
[9] = system: SUDHL5; assay: Induction of caspase-3/7 activity (Caspase-Glo 3/7), SUDHL5; format: cell-based; conditions: caspase-3/7 induction, SUDHL5 cells, 3 h treatment, median
Method in brief: as §2

[10] = Homo sapiens, SU-DHL10, 5 h, read-out: Cytotox SUDHL10 [M] (median), SUDHL10 cells, cytotoxicity induction, CellTiter-Glo, 5 h incubation, median
[11] = Homo sapiens, SU-DHL-5, 5 h, read-out: Cytotox SUDHL5 [M] (median), SUDHL5 cells, cytotoxicity induction, CellTiter-Glo, 5 h incubation, median
[12] = read-out: Cytotox SUDHL10 [M] (median), SUDHL10 cells, cytotoxicity induction, CellTiter-Glo, 5 h incubation, median
[13] = read-out: Cytotox SUDHL5 [M] (median), SUDHL5 cells, cytotoxicity induction, CellTiter-Glo, 5 h incubation, median

Sequence of MCL-1 (Q07820 whole entry): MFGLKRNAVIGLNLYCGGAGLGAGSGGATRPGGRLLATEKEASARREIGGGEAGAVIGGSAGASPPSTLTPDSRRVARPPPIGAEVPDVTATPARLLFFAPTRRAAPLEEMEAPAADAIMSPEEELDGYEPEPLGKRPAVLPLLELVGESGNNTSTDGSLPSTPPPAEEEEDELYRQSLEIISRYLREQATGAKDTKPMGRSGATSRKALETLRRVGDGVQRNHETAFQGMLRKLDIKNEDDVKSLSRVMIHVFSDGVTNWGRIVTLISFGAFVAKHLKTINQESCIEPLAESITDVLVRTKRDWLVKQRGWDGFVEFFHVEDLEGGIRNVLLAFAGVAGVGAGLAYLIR

Cn1nc(CN2CCOCC2)c2c1COCCCCn1c(C(=O)O)c(CCCOc3cccc4ccccc34)c3cccc-2c31 (racemic) [Example 135, (rac)-1-methyl-3-(morpholin-4-ylmethyl)-7-[3-(naphthalen-1-yloxy)propyl]-1,10,11,12,13,15-hexahydropyrazolo[4′,3′:9,10][1,6]oxazacycloundecino[8,7,6-hi]indole-8-carboxylic Acid]
IC50 ([1]; Homo sapiens, SU-DHL10, 72 h): 1.01e-05 M
IC50 ([2]; Homo sapiens, SU-DHL-5, 72 h): 7.26e-06 M
IC50 ([3]; Homo sapiens, OPM-2, 72 h): > 3.3e-05 M
IC50 [4, 10]: > 3.3e-05 M
IC50 ([5]; Homo sapiens, A2780, 72 h): > 3.3e-05 M
IC50 [6]: 0.0147 µM
EC50 ([7]; Homo sapiens, SU-DHL10, 3 h): > 33 µM
IC50 [8, 11]: 1.06e-05 M
EC50 ([9]; Homo sapiens, SU-DHL-5, 3 h): 12.1 µM

CCn1nc2c(c1C1CC1)-c1cccc3c(CCCOc4cccc5ccccc45)c(C(=O)O)n(c13)CCCCOC2 (racemic) [Example 081, (rac)-3-Cyclopropyl-2-ethyl-7-[3-(naphthalen-1-yloxy)propyl]-2,10,11,12,13,15-hexahydropyrazolo[4′3′:9,10][1,6]oxazacycloundecino[8,7,6-hi]indole-8-carboxylic Acid]
IC50 ([1]; Homo sapiens, SU-DHL10, 72 h): 9.62e-06 M
IC50 ([2]; Homo sapiens, SU-DHL-5, 72 h): 9.61e-06 M
IC50 ([3]; Homo sapiens, OPM-2, 72 h): 1.44e-05 M
IC50 [4, 10]: 2.26e-05 M
IC50 ([5]; Homo sapiens, A2780, 72 h): 1.74e-05 M
IC50 [6]: 0.015 µM
EC50 ([7]; Homo sapiens, SU-DHL10, 3 h): 19 µM
IC50 [8, 11]: 7.06e-06 M
EC50 ([9]; Homo sapiens, SU-DHL-5, 3 h): 7.21 µM

Cn1nc(COc2ccc(C3=CCOCC3)cc2)c2c1COCCCCn1c(C(=O)O)c(CCCOc3cccc4ccccc34)c3cccc-2c31 (single isomer, unassigned) [Example 1-62, 3-{[4-(3,6-dihydro-2H-pyran-4-yl)phenoxy]methyl}-1-methyl-7-[3-(naphthalen-1-yloxy)propyl]-1,10,11,12,13,15-hexahydropyrazolo[4′,3′:9,10][1,6]oxazacycloundecino[8,7,6-hi]indole-8-carboxylic Acid]
IC50 [1]: 3.36e-06 M
IC50 [2]: 1.02e-05 M
IC50 ([3]; Homo sapiens, OPM-2, 72 h): 7.6e-06 M
IC50 [4, 12]: 1.96e-05 M
IC50 [5]: 5.49e-06 M
IC50 [6]: 0.67 µM
EC50 ([7]; Homo sapiens, SU-DHL10, 3 h): 13.1 µM
IC50 [8, 11]: 1.2e-05 M
EC50 ([9]; Homo sapiens, SU-DHL-5, 3 h): 14.5 µM

CC(C)OCc1nn(C)c2c1-c1cccc3c(CCCOc4cccc5ccccc45)c(C(=O)O)n(c13)CCCCN(C)C2 (racemic) [Example 1-73, (rac)-1,14-dimethyl-7-[3-(naphthalen-1-yloxy)propyl]-3-[(propan-2-yloxy)methyl]-10,11,12,13,14,15-hexahydro-1H-pyrazolo[3′,4′:8,9][1,6]diazacycloundecino[10,11,1-hi]indole-8-carboxylic Acid]
IC50 ([1]; Homo sapiens, SU-DHL10, 72 h): 9.04e-06 M
IC50 ([2]; Homo sapiens, SU-DHL-5, 72 h): 3.68e-06 M
IC50 ([3]; Homo sapiens, OPM-2, 72 h): 1.17e-05 M
IC50 [4, 10]: 1.53e-05 M
IC50 ([5]; Homo sapiens, A2780, 72 h): 1.82e-05 M
IC50 [6]: 0.00713 µM
EC50 ([7]; Homo sapiens, SU-DHL10, 3 h): 11.9 µM
IC50 [8, 11]: 7e-06 M
EC50 ([9]; Homo sapiens, SU-DHL-5, 3 h): 6.83 µM

CN1CCCn2c(C(=O)O)c(CCCOc3cccc4ccccc34)c3cccc(c32)-c2c(CCN3CCOCC3)nn(C)c2C1 (racemic) [Example 124, (rac)-7,9-dimethyl-11-[2-(morpholin-4-yl)ethyl]-1-[3-(naphthalen-1-yloxy)propyl]-4,5,6,7,8,9-hexahydropyrazolo[3′,4′:7,8][1,5]diazecino[9,10,1-hi]indole-2-carboxylic Acid]
IC50 ([1]; Homo sapiens, SU-DHL10, 72 h): 3.05e-06 M
IC50 ([2]; Homo sapiens, SU-DHL-5, 72 h): 6.64e-06 M
IC50 ([3]; Homo sapiens, OPM-2, 72 h): 1.48e-05 M
IC50 [4, 10]: 1.61e-05 M
IC50 ([5]; Homo sapiens, A2780, 72 h): 1.1e-05 M
IC50 [6]: 0.0187 µM
EC50 ([7]; Homo sapiens, SU-DHL10, 3 h): 13.4 µM
IC50 [8, 11]: 1.71e-05 M
EC50 ([9]; Homo sapiens, SU-DHL-5, 3 h): 11.2 µM

CN1CCCn2c(C(=O)O)c(CCCOc3cccc4ccccc34)c3cccc(c32)-c2c(COc3ccc(N4CCOCC4)cc3)nn(C)c2C1 (single isomer, unassigned) [Example 1-88, (+)-7,9-dimethyl-11-{[4-(morpholin-4-yl)phenoxy]methyl}-1-[3-(naphthalen-1-yloxy)propyl]-4,5,6,7,8,9-hexahydropyrazolo[3′,4′:7,8][1,5]diazecino[9,10,1-hi]indole-2-carboxylic Acid]
IC50 ([1]; Homo sapiens, SU-DHL10, 72 h): > 3.3e-05 M
IC50 ([2]; Homo sapiens, SU-DHL-5, 72 h): > 3.3e-05 M
IC50 ([3]; Homo sapiens, OPM-2, 72 h): > 3.3e-05 M
IC50 [4, 10]: 6.19e-06 M
IC50 ([5]; Homo sapiens, A2780, 72 h): > 3.3e-05 M
IC50 [6]: 0.00789 µM
EC50 [7]: 6.35 µM
IC50 [8, 13]: 5.9e-06 M
EC50 ([9]; Homo sapiens, SU-DHL-5, 3 h): 6.03 µM

Cn1nc(COc2ccc(S(C)(=O)=O)cc2)c2c1COCCCCn1c(C(=O)O)c(CCCOc3cccc4ccccc34)c3cccc-2c31 (single isomer, unassigned) [Example 1-56, (+)-1-methy-3-{[4-(methylsulfonyl)phenoxy]methyl}-7-[3-(naphthalen-1-yloxy)propyl]-1,10,11,12,13,15-hexahydropyrazolo[4′,3′:9,10][1,6]oxazacycloundecino[8,7,6-hi]indole-8-carboxylic Acid]
IC50 [1]: > 3.3e-05 M
IC50 [2]: > 3.3e-06 M
IC50 [3]: > 3.3e-05 M
IC50 [4, 12]: 2.95e-05 M
IC50 [5]: > 3.3e-05 M
IC50 [6]: 0.00684 µM
EC50 [7]: 7.13 µM
IC50 [8, 13]: 5.72e-06 M
EC50 [9]: 5.7 µM

CN(C)S(=O)(=O)N1CCN(c2ccc(OCc3nn(C)c4c3-c3cccc5c(CCCOc6cccc7ccccc67)c(C(=O)O)n(c35)CCCCCC4)cc2)CC1 (racemic) [Example 1-39, (rac)-3-({4-[4-(dimethysulfamoyl)piperazin-1-yl]phenoxy}methyl)-1-methyl-7-[3-(naphthalen-1-yloxy)propyl]-10,11,12,13,14,15-hexahydro-1H-pyrazolo[4′,3′:4,5]azacycloundecino[3,2,1-hi]indole-8-carboxylic Acid]
IC50 ([1]; Homo sapiens, SU-DHL10, 72 h): 2.14e-05 M
IC50 ([2]; Homo sapiens, SU-DHL-5, 72 h): 5.77e-06 M
IC50 ([3]; Homo sapiens, OPM-2, 72 h): > 3.3e-05 M
IC50 [4, 10]: 1.82e-06 M
IC50 ([5]; Homo sapiens, A2780, 72 h): > 3.3e-05 M
IC50 [6]: 0.00251 µM
EC50 ([7]; Homo sapiens, SU-DHL10, 3 h): 2.45 µM
IC50 [8, 11]: 2.05e-06 M
EC50 ([9]; Homo sapiens, SU-DHL-5, 3 h): 3.47 µM

CN1CCN(c2ccc(OCc3nn(C)c4c3-c3cccc5c(CCCOc6cccc7ccccc67)c(C(=O)O)n(c35)CCCCOC4)cc2)CC1 (racemic) [Example 1-7, (rac)-1-methyl-3-{[4-(4-methylpiperazin-1-yl)phenoxy]methyl}-7-[3-(naphthalen-1-yloxy)propyl]-1,10,11,12,13,15-hexahydropyrazolo[4′,3′:9,10][1,6]oxazacycloundecino[8,7,6-hi]indole-8-carboxylic Acid]
IC50 ([1]; Homo sapiens, SU-DHL10, 72 h): > 3.3e-05 M
IC50 ([2]; Homo sapiens, SU-DHL-5, 72 h): 1.63e-06 M
IC50 ([3]; Homo sapiens, OPM-2, 72 h): > 3.3e-05 M
IC50 [4, 10]: 8.17e-06 M
IC50 ([5]; Homo sapiens, A2780, 72 h): > 3.3e-05 M
IC50 [6]: 0.0158 µM
EC50 ([7]; Homo sapiens, SU-DHL10, 3 h): > 33 µM
IC50 [8, 11]: > 3.3e-05 M
EC50 ([9]; Homo sapiens, SU-DHL-5, 3 h): > 33 µM

Cc1c2c(nn1CCN1CCOCC1)COCCCCn1c(C(=O)O)c(CCCOc3cccc4ccccc34)c3cccc-2c31 (single isomer, unassigned; enantiomer 1) [Example 054, 3-methyl-2-[2-(morpholin-4-yl)ethyl]-7-[3-(naphthalen-1-yloxy)propyl]-2,10,11,12,13,15-hexahydropyrazolo[4′,3′:9,10][1,6]oxazacycloundecino[8,7,6-hi]indole-8-carboxylic acid-N-ethylethanamine Salt (Enantiomer 1)]
IC50 [1]: 2.44e-06 M
IC50 ([2]; Homo sapiens, SU-DHL-5, 72 h): 8.08e-07 M
IC50 [3]: 7.46e-06 M
IC50 [4, 12]: 4.68e-06 M
IC50 ([5]; Homo sapiens, A2780, 72 h): 2.48e-05 M
IC50 [6]: 0.00156 µM
EC50 [7]: 6.64 µM
IC50 [8, 13]: 1.61e-06 M
EC50 [9]: 1.47 µM

COCCn1nc2c(c1C)-c1cccc3c(CCCOc4cccc5ccccc45)c(C(=O)O)n(c13)CCCN(C)C2 (racemic) [Example 052, (rac)-10-(2-methoxyethyl)-7,11-dimethyl-1-[3-(naphthalen-1-yloxy)propyl]-4,5,6,7,8,10-hexahydropyrazolo[3′,4′:7,8][1,5]diazecino[9,10,1-hi]indole-2-carboxylic Acid]
IC50 ([1]; Homo sapiens, SU-DHL10, 72 h): 1.3e-05 M
IC50 ([2]; Homo sapiens, SU-DHL-5, 72 h): 2.15e-06 M
IC50 ([3]; Homo sapiens, OPM-2, 72 h): 3.07e-05 M
IC50 [4, 10]: 2.97e-05 M
IC50 ([5]; Homo sapiens, A2780, 72 h): 7.41e-06 M
IC50 [6]: 0.028 µM
EC50 ([7]; Homo sapiens, SU-DHL10, 3 h): > 33 µM
IC50 [8, 11]: 2.68e-05 M
EC50 ([9]; Homo sapiens, SU-DHL-5, 3 h): 29.9 µM
